According to patent publication US20190292155A1, “THERAPEUTIC INHIBITORY COMPOUNDS” (LifeSci Pharmaceuticals, Inc., priority 2016, published 2019):

biological target: T1, human complement factor D (Homo sapiens, UniProt P00746); test: In vitro enzyme inhibition of human complement factor D (Z-Lys-SBzl/DTNB, A405); type: biochemical; conditions: not given
T1 construct: purchased R&D Systems 1824-SE
Method: The ability of the compounds disclosed herein to inhibit human complement factor D inhibitory activity was quantified according to the 12-step protocol provided below. • 1. Prepare assay buffer: 50 mM Tris/HCl, pH 7.5, 1 M NaCl. • 2. […] Then dilute the serial concentrations of Nafamostat Mesilate 20-fold in assay buffer. • 3. […] 0.5% DMSO was in each well finally. • 4. […] Add 10 μl diluted test compounds duplicated into the 96-well plate. […] 0.5% DMSO was in each well finally. • 6. Dilute 20 mM substrate Z-Lys-SBzl (Bachem, Cat# M-1300) to 200 μM in assay buffer with 200 μM DTNB (Sigma, Catalog# D8130). • 7. […] Add 40 μl diluted Complement Factor D in the 96-well plate. • 8. Positive control well contains Complement Factor D without test compound. Negative control well contains neither Complement Factor D nor test compound. Using assay buffer, bring the total volume of all controls to 50 al. • 9. Pre-incubate the plate for 5 min at room temperature. • 10. Add 50 μl of diluted substrate/DTNB mixture into each well. […] For kinetic reading: Immediately start measuring absorbance (A405 nm) continuously and record data every 30 sec for 60 min. • 12. Data analysis • Inhibition activity of compound was evaluated by IC50. IC50 was calculated according the dose-response curve of compound fitted using GraphPadPrism with “log(inhibitor)-response (variable slope)” equation. • % inhibition was calculated by using following equation:
[formula] • Mean(NC): The average value of the negative control wells' A405 nm values. • Mean(PC): The average value of the positive control wells' A405 nm values.

T1 sequence (P00746 26-253): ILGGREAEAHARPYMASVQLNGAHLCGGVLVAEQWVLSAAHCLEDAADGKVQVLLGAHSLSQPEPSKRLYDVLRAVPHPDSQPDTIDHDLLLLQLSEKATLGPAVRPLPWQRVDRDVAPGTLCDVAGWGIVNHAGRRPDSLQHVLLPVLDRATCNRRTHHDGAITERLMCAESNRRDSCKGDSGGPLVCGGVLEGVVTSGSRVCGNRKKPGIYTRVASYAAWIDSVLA

| SMILES | IC50 |
| --- | --- |
| NC(=O)c1nn(CC(=O)N(CC(=O)NCc2cccc(Cl)c2F)C2CC2)c2ccc(Cl)cc12 [Example 80, 5-chloro-1-(2-((2-((3-chloro-2-fluorobenzyl)amino)-2-oxoethyl)(cyclopropyl)amino)-2-oxoethyl)-1H-indazole-3-carboxamide] | 100 to 1000 nM |
| NC(=O)c1nn(CC(=O)N(CC(=O)NCc2c(F)ccc(Cl)c2F)C2CC2)c2ccccc12 [Example 82, 1-(2-((2-((3-chloro-2,6-difluorobenzyl)amino)-2-oxoethyl)(cyclopropyl)amino)-2-oxoethyl)-1H-indazole-3-carboxamide] | 100 to 1000 nM |
| NC(=O)c1nn(CC(=O)N(CC(=O)NCc2cccc(Cl)c2F)C2CC2)c2cc(F)ccc12 [Example 84, 1-(2-((2-((3-chloro-2-fluorobenzyl)amino)-2-oxoethyl)(cyclopropyl)amino)-2-oxoethyl)-6-fluoro-1H-indazole-3-carboxamide] | 100 to 1000 nM |
| NC(=O)c1nn(CC(=O)N(CC(=O)NCc2cccc(Cl)c2F)C2CC2)c2cc(Cl)ccc12 [Example 85, 6-chloro-1-(2-((2-((3-chloro-2-fluorobenzyl)amino)-2-oxoethyl)(cyclopropyl)amino)-2-oxoethyl)-1H-indazole-3-carboxamide] | 100 to 1000 nM |
| N#Cc1ccc2c(C(N)=O)nn(CC(=O)N(CC(=O)NCc3cccc(Cl)c3F)C3CC3)c2c1 [Example 86, 1-(2-((2-((3-chloro-2-fluorobenzyl)amino)-2-oxoethyl)(cyclopropyl)amino)-2-oxoethyl)-6-cyano-1H-indazole-3-carboxamide] | 100 to 1000 nM |
| NC(=O)c1ccc2c(C(N)=O)nn(CC(=O)N(CC(=O)NCc3cccc(Cl)c3F)C3CC3)c2c1 [Example 100, 1-(2-((2-((3-chloro-2-fluorobenzyl)amino)-2-oxoethyl)(cyclopropyl)amino)-2-oxoethyl)-1H-indazole-3,6-dicarboxamide] | < 100 nM |

same assay, conditions: biochemical assay, substrate Z-Lys-SBzl; read-out: CFD IC50

| SMILES | IC50 |
| --- | --- |
| NC(=O)c1nn(CC(=O)N(CC(=O)NCc2cccc(Cl)c2F)C2CC2)c2c(Cl)cccc12 [Example 81, 7-chloro-1-(2-((2-((3-chloro-2-fluorobenzyl)amino)-2-oxoethyl)(cyclopropyl)amino)-2-oxoethyl)-1H-indazole-3-carboxamide] | < 100 nM |
| NC(=O)c1nn(CC(=O)N(CC(=O)NCc2ccc(F)c(Cl)c2F)C2CC2)c2ccccc12 [Example 83, 1-(2-((2-((3-chloro-2,4-difluorobenzyl)amino)-2-oxoethyl)(cyclopropyl)amino)-2-oxoethyl)-1H-indazole-3-carboxamide] | 100 to 1000 nM |
| N#Cc1ccc(Cl)c(F)c1CNC(=O)CN(C(=O)Cn1nc(C(N)=O)c2ccccc21)C1CC1 [Example 87, 1-(2-((2-((3-chloro-6-cyano-2-fluorobenzyl)amino)-2-oxoethyl)(cyclopropyl)amino)-2-oxoethyl)-1H-indazole-3-carboxamide] | 100 to 1000 nM |
| NC(=O)c1nn(CC(=O)N(CC(=O)NCc2cccc(Cl)c2F)C2CC2)c2c(F)cccc12 [Example 88, 1-(2-((2-((3-chloro-2-fluorobenzyl)amino)-2-oxoethyl)(cyclopropyl)amino)-2-oxoethyl)-7-fluoro-1H-indazole-3-carboxamide] | 100 to 1000 nM |
| NCc1ccc2c(C(N)=O)nn(CC(=O)N(CC(=O)NCc3cccc(Cl)c3F)C3CC3)c2c1 [Example 89, 6-(aminomethyl)-1-(2-((2-((3-chloro-2-fluorobenzyl)amino)-2-oxoethyl)(cyclopropyl)amino)-2-oxoethyl)-1H-indazole-3-carboxamide] | 1000 to 10000 nM |
| N#Cc1cc(Cl)c(F)c(CNC(=O)CN(C(=O)Cn2nc(C(N)=O)c3ccccc32)C2CC2)c1 [Example 90, 1-(2-((2-((3-chloro-5-cyano-2-fluorobenzyl)amino)-2-oxoethyl)(cyclopropyl)amino)-2-oxoethyl)-1H-indazole-3-carboxamide] | 1000 to 10000 nM |
| NC(=O)c1nn(CC(=O)N(CC(=O)NCc2cc(Cl)cc3[nH]ncc23)C2CC2)c2ccccc12 [Example 91, 1-(2-((2-(((6-chloro-1H-indazol-4-yl)methyl)amino)-2-oxoethyl)(cyclopropyl)amino)-2-oxoethyl)-1H-indazole-3-carboxamide] | 100 to 1000 nM |
| N#Cc1ccc2c(c1)c(C(N)=O)nn2CC(=O)N(CC(=O)NCc1cccc(Cl)c1F)C1CC1 [Example 92, 1-(2-((2-((3-chloro-2-fluorobenzyl)amino)-2-oxoethyl)(cyclopropyl)amino)-2-oxoethyl)-5-cyano-1H-indazole-3-carboxamide] | 100 to 1000 nM |
| NC(=O)c1ccc2c(c1)c(C(N)=O)nn2CC(=O)N(CC(=O)NCc1cccc(Cl)c1F)C1CC1 [Example 93, 1-(2-((2-((3-chloro-2-fluorobenzyl)amino)-2-oxoethyl)(cyclopropyl)amino)-2-oxoethyl)-1H-indazole-3,5-dicarboxamide] | 100 to 1000 nM |
| NC(=O)c1nn(CC(=O)N(CC(=O)NCc2cccc(Cl)c2F)C2CC2)c2cc(C(F)(F)F)ccc12 [Example 94, 1-(2-((2-((3-chloro-2-fluorobenzyl)amino)-2-oxoethyl)(cyclopropyl)amino)-2-oxoethyl)-6-(trifluoromethyl)-1H-indazole-3-carboxamide] | 100 to 1000 nM |
| NC(=O)c1nn(CC(=O)N(CC(=O)NCc2cccc(Cl)c2F)C2CC2)c2ccc(C(F)(F)F)cc12 [Example 95, 1-(2-((2-((3-chloro-2-fluorobenzyl)amino)-2-oxoethyl)(cyclopropyl)amino)-2-oxoethyl)-5-(trifluoromethyl)-1H-indazole-3-carboxamide] | 1000 to 10000 nM |
| N#Cc1ccc(CNC(=O)CN(C(=O)Cn2nc(C(N)=O)c3ccccc32)C2CC2)c(F)c1Cl [Example 96, 1-(2-((2-((3-chloro-4-cyano-2-fluorobenzyl)amino)-2-oxoethyl)(cyclopropyl)amino)-2-oxoethyl)-1H-indazole-3-carboxamide] | 1000 to 10000 nM |
| NC(=O)c1nn(CC(=O)N(CC(=O)NCc2cccc(Cl)c2F)C2CC2)c2cccc(F)c12 [Example 97, 1-(2-((2-((3-chloro-2-fluorobenzyl)amino)-2-oxoethyl)(cyclopropyl)amino)-2-oxoethyl)-4-fluoro-1H-indazole-3-carboxamide] | 1000 to 10000 nM |
| O=C(CN(C(=O)Cn1nc(-c2ncc[nH]2)c2ccccc21)C1CC1)NCc1cccc(Cl)c1F [Example 98, 2-(3-(1H-imidazol-2-yl)-1H-indazol-1-yl)-N-(2-((3-chloro-2-fluorobenzyl)amino)-2-oxoethyl)-N-cyclopropylacetamide] | 1000 to 10000 nM |
| NC(=O)c1nn(CC(=O)N(CC(=O)NCc2ccc(CO)c(Cl)c2F)C2CC2)c2ccccc12 [Example 99, 1-(2-((2-((3-chloro-2-fluoro-4-(hydroxymethyl)benzyl)amino)-2-oxoethyl)(cyclopropyl)amino)-2-oxoethyl)-1H-indazole-3-carboxamide] | > 10000 nM |
| NCc1cc(Cl)c(F)c(CNC(=O)CN(C(=O)Cn2nc(C(N)=O)c3ccccc32)C2CC2)c1 [Example 101, 1-(2-((2-((5-(aminomethyl)-3-chloro-2-fluorobenzyl)amino)-2-oxoethyl)(cyclopropyl)amino)-2-oxoethyl)-1H-indazole-3-carboxamide] | 1000 to 10000 nM |
| NC(=O)c1nn(CC(=O)N(CC(=O)NCc2cc(Cl)c3cn[nH]c3c2)C2CC2)c2ccccc12 [Example 102, 1-(2-((2-(((4-chloro-1H-indazol-6-yl)methyl)amino)-2-oxoethyl)(cyclopropyl)amino)-2-oxoethyl)-1H-indazole-3-carboxamide] | 1000 to 10000 nM |
| NC(=O)c1nn(CC(=O)N(CC(=O)NCc2cc(F)cc(Cl)c2)C2CC2)c2ccccc12 [Example 103, 1-(2-((2-((3-chloro-5-fluorobenzyl)amino)-2-oxoethyl)(cyclopropyl)amino)-2-oxoethyl)-1H-indazole-3-carboxamide] | 100 to 1000 nM |
| NC(=O)c1nn(CC(=O)N(CC(=O)NCc2ccc(Cl)c(Cl)c2)C2CC2)c2ccccc12 [Example 104, 1-(2-(cyclopropyl(2-((3,4-dichlorobenzyl)amino)-2-oxoethyl)amino)-2-oxoethyl)-1H-indazole-3-carboxamide] | 1000 to 10000 nM |
| N#Cc1cccc2c(C(N)=O)nn(CC(=O)N(CC(=O)NCc3cccc(Cl)c3F)C3CC3)c12 [Example 105, 1-(2-((2-((3-chloro-2-fluorobenzyl)amino)-2-oxoethyl)(cyclopropyl)amino)-2-oxoethyl)-7-cyano-1H-indazole-3-carboxamide] | 1000 to 10000 nM |
| NC(=O)c1nn(CC(=O)N(CC(=O)NCc2cccc(Cl)c2Cl)C2CC2)c2ccccc12 [Example 106, 1-(2-(cyclopropyl(2-((2,3-dichlorobenzyl)amino)-2-oxoethyl)amino)-2-oxoethyl)-1H-indazole-3-carboxamide] | 100 to 1000 nM |
| NC(=O)c1nn(CC(=O)N(CC(=O)NCc2cccc(Cl)n2)C2CC2)c2ccccc12 [Example 107, 1-(2-((2-(((6-chloropyridin-2-yl)methyl)amino)-2-oxoethyl)(cyclopropyl)amino)-2-oxoethyl)-1H-indazole-3-carboxamide] | 1000 to 10000 nM |
